Consider 3 compounds from article PMC13327496, “The X‐Ray Crystal Structure of BorF, the Flavin Reductase Subunit of a Two‐Component Flavin‐Dependent Tryptophan Halogenase” (Proteins, 2026).

Test [1] deals with BorF (soil bacterial metagenome from the Anza-Borrego desert). Put plainly: SEC; BorF alone after tag cleavage, Superdex 200, 20 mM Tris pH 7.5, 150 mM NaCl; single peak at 78.2 mL. For orientation: In gel filtration, larger molecules generally elute earlier.
In another test the target is T1, BorF (uncultured bacterium, UniProt M9QXS1).
T1 construct: full-length residues 1-196 plus an N-terminal Pro after PreScission cleavage; His6-MBP tag removed; synthetic gene, E. coli Rosetta2(DE3) pLysS; homodimer
T1 sequence (M9QXS1 1-196): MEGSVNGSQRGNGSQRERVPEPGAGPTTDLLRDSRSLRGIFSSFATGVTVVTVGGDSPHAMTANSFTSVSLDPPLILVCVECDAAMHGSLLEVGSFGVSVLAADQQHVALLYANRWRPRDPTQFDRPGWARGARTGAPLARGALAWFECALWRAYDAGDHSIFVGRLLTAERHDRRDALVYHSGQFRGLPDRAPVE
Kind of test: NADH depletion at […] nm. It is filed as biochemical. To be noted: 25 mM HEPES pH 7.5, room temperature.

The stoichiometry N is the number of molecules, sites or subunits per partner or assembly. In test [1], BorF (enzyme) gave a stoichiometry N of 2.
In the case of `Cc1cc2nc3c(=O)[nH]c(=O)nc-3n(C[C@H](O)[C@H](O)[C@H](O)COP(=O)(O)O)c2cc1C` [FMN], the “NADH depletion at 340 nm” value at BorF (apo-BorF, 25 μM FMN, 100 μM NADH) was “BorF utilizes FAD as a substrate but is also able to reduce FMN and riboflavin”.
As for `NC(=O)C1=CN([C@@H]2O[C@H](COP(=O)(O)OP(=O)(O)OC[C@H]3O[C@@H](n4cnc5c(N)ncnc54)[C@H](O)[C@@H]3O)[C@@H](O)[C@H]2O)C=CC1` [NADH], at BorF (apo-BorF 0.2 μM, 25 μM FAD), the “NADH depletion at 340 nm” value is given as “BorF oxidizes NADH to NAD^+, as determined by NADH depletion monitored by absorbance”.
